From article PMC6019444, “Activation of the Immune-Metabolic Receptor GPR84 Enhances Inflammation and Phagocytosis in Macrophages” (Frontiers in Immunology, 2018) come the findings set out here.

This experiment deals with GPR84 (Mus musculus, UniProt Q8CIM5). The experiment is described as follows: real-time cell impedance in LPS-primed mouse BMDMs, WT versus GPR84-/-. It is filed as cell-based.

Structures are written as SMILES.

GPR84, sequence (Q8CIM5 whole entry): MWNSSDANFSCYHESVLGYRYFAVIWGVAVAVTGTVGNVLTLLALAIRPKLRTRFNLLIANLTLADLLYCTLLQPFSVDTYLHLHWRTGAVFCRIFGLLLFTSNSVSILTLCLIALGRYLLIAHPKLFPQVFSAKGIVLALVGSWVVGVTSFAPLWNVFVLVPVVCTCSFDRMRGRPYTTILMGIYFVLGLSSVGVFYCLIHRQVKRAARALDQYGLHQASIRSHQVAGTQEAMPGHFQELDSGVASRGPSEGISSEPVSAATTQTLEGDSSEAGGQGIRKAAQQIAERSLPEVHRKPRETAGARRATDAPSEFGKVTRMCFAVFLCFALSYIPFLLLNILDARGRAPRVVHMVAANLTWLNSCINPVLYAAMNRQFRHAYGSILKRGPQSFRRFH

On to `CCCCCCCCNc1cc(=O)[nH]c(=O)[nH]1` [6-OAU, 6-(octylamino) pyrimidine-2,4(1H,3H)-dione], for which the “real-time cell impedance in LPS-primed mouse BMDMs, WT versus GPR84-/-” value is recorded as “no response was observed when adding any dose of 6-OAU to GPR84^−/− cells”.
